Patent US20110318271A1, “Arginase Inhibitors for the Treatment of Depression” (UNIVERSITY OF TARTU, priority 2008, published 2011)

System: Male C57BL/6/Bkl mice
Experiment: Forced swimming test in mice
Type: in vivo
Method: Male C57BL/6/Bkl mice (Scanbur BK AB, Sweden) weighing 20-25 g were used. Mice were kept 10 per cage (21×37×15 cm) in an animal house at 20° C. in a 12 h light/dark cycle (light on at 7.00 a.m.). Tap water and food pellets were available ad libitum. The animals were kept for at least two weeks in the animal colony before entering experiments. The measurement of locomotor activity, and forced swimming test were carried out consecutively 45 and 55 min after treatment with study compounds, according to Volke V, Wegener G, Bourin […]. […] Behavioural Brain Research 2003; 140: 141-147. In a separate experiment arginase product L-ornithine or saline was injected 15 min prior to L-norvaline. The Forced Swimming test was performed as described by Porsolt et al Porsolt R D, Bertin A, Jalfre M. Behavioral despair in mice: a primary screening test for antidepressants. Arch Int Pharmacodyn Ther 1977; 229: 327-336. A glass cylinder with a diameter of 12 cm was filled with 8 cm water at 25° C. An animal was put into the water and its behaviour was videotaped during 6 min. An observer blind to treatment protocol counted the immobility time during the last 4 min of the 6 min test.

[1] = Example 2, separate experiment (FIG. 2), 500 mg/kg each, L-ornithine or saline injected 15 min prior to L-norvaline, saline 199 sec

Compound | immobility time (20 mg/kg i.p., 55 min after treatment, last 4 min of 6 min test, control 220 sec (FIG. 1)) | immobility time (100 mg/kg i.p., 55 min after treatment, last 4 min of 6 min test, control 220 sec (FIG. 1)) | immobility time (500 mg/kg i.p., 55 min after treatment, last 4 min of 6 min test, control 220 sec (FIG. 1)) | immobility time [1] | immobility time (400 mg/kg i.p., separate experiment, control 219 sec) | effect on immobility time (lower doses 10-100 mg/kg i.p.)
CCC[C@H](N)C(=O)O [L-norvaline] | 146 s | 107 s | 96 s | 127 s |  | 
NCCC[C@H](N)C(=O)O [L-ornithine] |  |  |  | 214 s |  | 
difluoromethylornithine [DFMO] |  |  |  |  | 191 s | ineffective
